Patent publication EP0197661A2, “Low-calorie sugar composition” (Takeda Chemical Industries, Ltd., priority 1985, dated 1986)
Marks after values point to notes of the source that are not given here.

Test system: Male rats (Jcl:SD strain)
Experiment: Oral sucrose loading in fasted rats with varying dosage of AO-128; blood glucose level
Format: in vivo
Conditions: rats fasted 20 hours, mean ± standard deviation
Protocol: Male rats (Jcl:SD strain, purchased from Clea Japan) aged 6 weeks, which had been raised on commercially available pelleted rat chow (CE-2®, Clea Japan), were fasted for 20 hours and, then, administered orally with 2.5 g/kg of sucrose containing a varying dosage of AO-128. The blood glucose level was determined 30, 60 and 120 minutes after administration.

[1] = AO-128 0.1mg/Kg with 2.5 g/kg sucrose orally
[2] = AO-128 0.2mg/Kg with 2.5 g/kg sucrose orally
[3] = AO-128 0.4mg/Kg with 2.5 g/kg sucrose orally

OCC(CO)N[C@H]1C[C@](O)(CO)[C@@H](O)[C@H](O)[C@H]1O [AO-128, N-(l,3-dihydroxy-2-propyl)valiolamine]
Blood glucose level 0 min. [1]: 69 ± 4 mg/dL
Blood glucose level 60 min. [1]: 101±2^a mg/dℓ
Blood glucose level 120 min. [1]: 88±3^a mg/dℓ
Delta glucose area [1]: 52±5^b mg/dℓ·hr
Blood glucose level 30 min. [2]: 102±6^b mg/dℓ
Delta glucose area [2]: 38±7^a mg/dℓ·hr
Blood glucose level 0 min. [3]: 67 ± 4 mg/dL
Blood glucose level 30 min. [3]: 79±2^a mg/dℓ
Blood glucose level 60 min. [3]: 77±5^a mg/dℓ
Blood glucose level 120 min. [3]: 71±5^a mg/dℓ
